ChEMBL document CHEMBL4725400, “Natural product-inspired aryl isonitriles as a new class of antimalarial compounds against drug-resistant parasites” (Bioorg Med Chem, 2020)
pEC50: −log10 of the molar value.

System: not listed separately
Experiment: Selectivity index, ratio of MTD for cytotoxicity against human HaCaT cells to EC50 for antimalarial activity against blood stage chloroquine-resistant Plasmodium falciparum Dd2 infected in human erythrocytes
Type: toxicity, cell-based
Details: read-out: Selectivity Index

| SMILES | selectivity ratio |
| --- | --- |
| [C-]#[N+]c1ccc(/C=C/c2ccc([N+]#[C-])cc2)cc1 | 4740 |
| [C-]#[N+]c1ccc(/C=C/c2ccncc2)cc1 | 1450 |

System: not listed separately
Experiment: Selectivity index, ratio of IC50 for cytotoxicity against human KB cells to EC50 for antiplasmodial activity against Plasmodium falciparum W2
Type: toxicity, cell-based
Details: read-out: Selectivity Index

| SMILES | selectivity ratio |
| --- | --- |
| [C-]#[N+][C@]1(C)[C@H](C)C[C@@H]2C[C@H](C)[C@H]3CC[C@](C)([N+]#[C-])[C@H]4CC[C@H]1[C@@H]2[C@H]34 [DIISOCYANOADOCIANE] | 1000 |

System: Plasmodium falciparum
Experiment: Antimalarial activity against Plasmodium falciparum W2 assessed as inhibition of parasite growth
Type: functional, organism-based
Details: not given

| SMILES | pEC50 |
| --- | --- |
| [C-]#[N+][C@]1(C)[C@H](C)C[C@@H]2C[C@H](C)[C@H]3CC[C@](C)([N+]#[C-])[C@H]4CC[C@H]1[C@@H]2[C@H]34 [DIISOCYANOADOCIANE] | 7.89 |
| [C-]#[N+][C@@H]1[C@H](C(C)C)CC[C@@H](C)[C@@]12C=C(C)CC2 [AXISONITRILE 3] | 7.15 |
| CC1=C[C@]2(CC1)[C@H](C)CC[C@@H](C(C)C)[C@H]2N=C=S | 4.93 |

System: Plasmodium falciparum
Experiment: Antimalarial activity against blood stage chloroquine-resistant Plasmodium falciparum Dd2 infected in human erythrocytes assessed as inhibition of parasite growth incubated for 72 hrs by SYBR Green I dye based staining analysis
Type: functional, organism-based
Details: Dd2, Erythrocyte

| SMILES | pEC50 |
| --- | --- |
| [C-]#[N+]c1ccccc1-c1ccc2ccccc2c1 | 5.21 |
| [C-]#[N+]c1ccc(/C=C/c2ccc(Cl)c(Cl)c2)cc1 | 5.49 |
| [C-]#[N+]c1ccccc1/C=C/c1ccc(C(F)(F)F)cc1 | 5.24 |
| [C-]#[N+]c1ccccc1/C=C(\CC)c1cccc(C(F)(F)F)c1 | 5.27 |
| [C-]#[N+]c1ccc(CCc2ccncc2)cc1 | 6.25 |
| [C-]#[N+]c1ccc(/C=C/c2ccc([N+]#[C-])cc2)cc1 | 7.57 |
| [C-]#[N+]c1ccccc1/C=C/c1ccncc1 | 5.43 |
| [C-]#[N+]c1ccc(CCc2cccc([N+]#[C-])c2)cc1 | 5.56 |
| [C-]#[N+]c1ccccc1/C=C/c1cccc(C(F)(F)F)c1 | 6.57 |
| [C-]#[N+]c1ccc(/C=C/c2ccc(OC)cc2)cc1 | 5.64 |
| [C-]#[N+]c1ccccc1/C=C/c1cccc(F)c1 | 4.91 |
| [C-]#[N+]c1ccc(/C=C/c2ccco2)cc1 | 5.58 |
| CC/C(=C\c1ccccc1)c1ccccc1 | < 4.00 |
| [C-]#[N+]c1ccccc1/C=C/c1ccccc1C(F)(F)F | 5.37 |
| [C-]#[N+]c1ccccc1/C=C(\CCC)c1ccccc1 | 5.51 |
| [C-]#[N+]c1ccc(/C=C/c2cc(OC)cc(OC)c2)cc1 | 5.79 |
| [C-]#[N+]c1cccc(/C=C/c2ccccc2)c1 | 5.27 |
| [C-]#[N+]c1ccccc1/C=C/c1ccc(OC)cc1 | 5.51 |
| [C-]#[N+]c1ccc(CCc2ccc([N+]#[C-])cc2)cc1 | 6.66 |
| [C-]#[N+]c1ccccc1/C=C/c1cccnc1 | 4.89 |
| [C-]#[N+]c1ccc(/C=C/c2ccccc2)cc1 | 5.56 |
| [C-]#[N+]c1ccccc1-c1ccccc1 | 4.97 |
| [C-]#[N+]c1ccc(/C=C/c2ccc(F)cc2)cc1 | 5.33 |

| SMILES | pEC50 |
| --- | --- |
| [C-]#[N+]c1ccccc1/C=C(\CC)c1ccc(C(F)(F)F)cc1 | 5.11 |
| [C-]#[N+]c1ccccc1/C=C/c1ccccc1 | 4.94 |
| [C-]#[N+]c1ccc(CCc2ccccc2[N+]#[C-])cc1 | 6.36 |
| [C-]#[N+]c1ccc(/C=C/c2ccccn2)cc1 | 4.99 |
| [C-]#[N+]c1ccccc1/C=C/c1ccc(F)cc1 | 6.25 |
| [C-]#[N+]c1ccc(/C=C/c2ccc3ccccc3n2)cc1 | 5.28 |
| [C-]#[N+]c1ccc(/C=C/c2cccc([N+]#[C-])c2)cc1 | 6.58 |
| [C-]#[N+]c1ccccc1/C=C/c1ccccc1F | 5.43 |
| [C-]#[N+]c1ccccc1/C=C(\CC)c1ccc(F)cc1 | 5.01 |
| [C-]#[N+]c1ccccc1/C=C(\CCCC)c1ccccc1 | 5.28 |
| [C-]#[N+]c1ccc(/C=C/c2ccncc2)cc1 | 7.06 |
| [C-]#[N+]c1ccccc1/C=C/c1ccccn1 | 5.12 |
| [C-]#[N+]c1ccccc1/C=C/c1cccc(OC)c1 | 5.19 |
| [C-]#[N+]c1ccc(/C=C/c2ccnc3ccccc23)cc1 | 5.16 |
| [C-]#[N+]c1ccccc1C=C(c1ccccc1)c1ccccc1 | 5.44 |
| [C-]#[N+]c1cccc(/C=C/c2ccccn2)c1 | 5.01 |
| [C-]#[N+]c1ccc(/C=C/c2ccc(C(F)(F)F)cc2)cc1 | 5.66 |
| [C-]#[N+]c1ccc(/C=C/c2ccccc2[N+]#[C-])cc1 | 7.17 |
| [C-]#[N+]c1ccccc1/C=C/c1ccccc1OC | 4.66 |
| [C-]#[N+]c1ccc(/C=C/c2cccnc2)cc1 | 5.29 |
| [C-]#[N+]c1ccccc1/C=C(\CC)c1ccccc1 | 4.98 |
| [C-]#[N+]c1ccc(/C=C/c2cccc(OC)c2)cc1 | 6.00 |
| [C-]#[N+]c1cccc(/C=C/c2cccnc2)c1 | 6.16 |
